Some test systems named below: SF-539 CNS; UACC-62 melanoma; BT-549 breast; TK-10 renal; PC-3 prostate; U251 CNS; LOX IMVI melanoma; HT29 colon; NCI-H23 lung; COLO 205 colon.
Common to all, as to assay: inhibition of tumour cell growth, NCI panel, 48 h

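How tested: cells in 96-well plates exposed to compound for 48 hours at five concentrations. TGI: concentration producing complete growth inhibition.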

As for `CCOC(=O)[C@@H]1ON2OC(OC3CCCC3(c3ccccc3)c3ccccc3)C(OC(C)=O)[C@H]3OC(=O)[C@@H]1C32` (stereo not given in full), the TGI with SF-539 CNS, in the assay on UACC-62 melanoma, in the assay with BT-549 breast, in the assay with TK-10 renal, in the assay on PC-3 prostate and in the assay on U251 CNS was above 100 µM in each case. Further, the TGI in the assay on LOX IMVI melanoma was 60.3 µM; in the assay on HT29 colon, above 100 µM; with NCI-H23 lung, above 100 µM; with COLO 205 colon, above 100 µM.

Consider `Cc1ccc(-n2cc([Si](C)(C)C)nn2)s1`, for which the TGI with SF-539 CNS, with UACC-62 melanoma, in the assay with BT-549 breast, in the assay on TK-10 renal, in the assay with PC-3 prostate and in the assay with U251 CNS was above 100 µM each time. Also, the TGI in the assay with LOX IMVI melanoma, with HT29 colon, in the assay on NCI-H23 lung and in the assay with COLO 205 colon was above 100 µM throughout.

For `O=C1C(=Cc2ccc(Cl)c(Cl)c2)C([O-])=C([P+](c2ccccc2)(c2ccccc2)c2ccccc2)C([O-])=C1[P+](c1ccccc1)(c1ccccc1)c1ccccc1`, the TGI in the assay with SF-539 CNS stood at 5.17 µM; with UACC-62 melanoma, 5.29 µM; in the assay with BT-549 breast it was 5.19 µM; in the assay on TK-10 renal, 5.6 µM; in the assay on PC-3 prostate it was 3.79 µM; in the assay with U251 CNS, 6.29 µM. For the same molecule, the TGI with LOX IMVI melanoma was determined as 2.67 µM; in the assay with HT29 colon it was 4.05 µM; with NCI-H23 lung, 10 µM; in the assay with COLO 205 colon it was 3.28 µM.

For `O=[N+]([O-])c1cccc2nccc(NCCCO)c12`, the TGI worked out at 29.4 µM in the assay on SF-539 CNS; 23.3 µM in the assay on UACC-62 melanoma; 21.6 µM in the assay on BT-549 breast; 52.3 µM with TK-10 renal; 69.8 µM in the assay on PC-3 prostate; 31.3 µM in the assay with U251 CNS. In addition, the TGI in the assay with LOX IMVI melanoma was found to be 31.7 µM; in the assay on HT29 colon it was 74.1 µM; with NCI-H23 lung, 27.1 µM; in the assay with COLO 205 colon it was 15.8 µM.

As for `CCOc1ccc2c(c1)c(=O)c1c(NCCN(CC)CC)ccc3nnn2c31`, the TGI in the assay with SF-539 CNS is 24.1 µM; with UACC-62 melanoma it was above 100 µM; in the assay with BT-549 breast, above 100 µM; in the assay on TK-10 renal, 37.9 µM; in the assay with PC-3 prostate, 49.7 µM; in the assay with U251 CNS, above 58.2 µM. The TGI with LOX IMVI melanoma was 32 µM; with HT29 colon, 32 µM; with NCI-H23 lung, 38.6 µM; in the assay on COLO 205 colon, above 54 µM.

Consider `COc1ccc(C2=NN=C3C(c4ccccc4)=Nc4ccccc4N3C2)cc1`, for which the TGI in the assay on SF-539 CNS, with UACC-62 melanoma, in the assay on BT-549 breast, with TK-10 renal, in the assay with PC-3 prostate and with U251 CNS was above 100 µM throughout. For the same molecule, the TGI in the assay on LOX IMVI melanoma was above 100 µM; with HT29 colon it was 74.3 µM; with NCI-H23 lung, above 100 µM; with COLO 205 colon, 70.7 µM.

Turning to `CN(C)CCCNCc1cccc2ccccc12`, the TGI with SF-539 CNS, in the assay on UACC-62 melanoma, in the assay on BT-549 breast, in the assay on TK-10 renal, in the assay on PC-3 prostate and in the assay with U251 CNS was above 100 µM each time. Moreover, the TGI in the assay on LOX IMVI melanoma, in the assay on HT29 colon, with NCI-H23 lung and in the assay with COLO 205 colon was above 100 µM throughout.

`CSc1scc2c1/C(=N/NC(N)=O)CCC2`: the TGI with SF-539 CNS, with UACC-62 melanoma, with BT-549 breast, in the assay on TK-10 renal, in the assay on PC-3 prostate and in the assay with U251 CNS was above 100 µM throughout. In addition, the TGI with LOX IMVI melanoma, in the assay with HT29 colon, in the assay with NCI-H23 lung and with COLO 205 colon was above 100 µM throughout.

On to `CC(=O)OC1COC(Nc2nc(N)n(C)c(=O)c2N=O)C(OC(C)=O)C1OC(C)=O` (stereo not given), for which the TGI in the assay on SF-539 CNS, in the assay on UACC-62 melanoma, with BT-549 breast, with TK-10 renal, in the assay with PC-3 prostate and with U251 CNS was above 10 µM throughout. For the same molecule, the TGI in the assay with LOX IMVI melanoma, in the assay on HT29 colon, in the assay on NCI-H23 lung and in the assay with COLO 205 colon was above 10 µM throughout.

`CC1=NN(c2nc(N)nc(CF)n2)C(C)(C)C1`: the TGI with SF-539 CNS, in the assay with UACC-62 melanoma, with BT-549 breast, in the assay on TK-10 renal, with PC-3 prostate and in the assay with U251 CNS was above 100 µM throughout. Further, the TGI in the assay on LOX IMVI melanoma, in the assay on HT29 colon, in the assay with NCI-H23 lung and in the assay on COLO 205 colon was above 100 µM throughout.

For `C=C1C(=O)OC2CC3(C)OC3CC/C(C)=C/C(OC(C)=O)C12` (stereo not given), the TGI stood at 16.8 µM with SF-539 CNS; 22.9 µM with UACC-62 melanoma; 22.2 µM with BT-549 breast; 12.8 µM in the assay with TK-10 renal; 26 µM in the assay with PC-3 prostate; 33.5 µM with U251 CNS. In addition, the TGI worked out at 12.8 µM with LOX IMVI melanoma, 13.5 µM in the assay on HT29 colon, 27.6 µM with NCI-H23 lung and 4.03 µM in the assay on COLO 205 colon.

In the case of `O=C1CC2CCC(C1)S2=O` (stereo not given), the TGI with SF-539 CNS, in the assay on UACC-62 melanoma, in the assay with BT-549 breast, in the assay with TK-10 renal, with PC-3 prostate and in the assay with U251 CNS was above 100 µM throughout. The TGI in the assay on LOX IMVI melanoma, in the assay with HT29 colon, with NCI-H23 lung and in the assay on COLO 205 colon was above 100 µM in each case.

For `[N-]=[N+]=Nc1c([N+](=O)[O-])c(=O)n2c3c(cccc13)CCC2`, the TGI with SF-539 CNS was 52.2 µM; in the assay with UACC-62 melanoma, 29.9 µM; in the assay with BT-549 breast, 32.7 µM; with TK-10 renal, 34.3 µM; in the assay with PC-3 prostate, 30.7 µM; in the assay on U251 CNS, 34.7 µM. The TGI in the assay on LOX IMVI melanoma is 28.9 µM; in the assay with HT29 colon, 36.1 µM; in the assay with NCI-H23 lung it was 43.6 µM; in the assay with COLO 205 colon it was 20.9 µM.
